Where only a bound is given, the exact number is not on record here.

Chain of GLP-1R (P43220 24-463): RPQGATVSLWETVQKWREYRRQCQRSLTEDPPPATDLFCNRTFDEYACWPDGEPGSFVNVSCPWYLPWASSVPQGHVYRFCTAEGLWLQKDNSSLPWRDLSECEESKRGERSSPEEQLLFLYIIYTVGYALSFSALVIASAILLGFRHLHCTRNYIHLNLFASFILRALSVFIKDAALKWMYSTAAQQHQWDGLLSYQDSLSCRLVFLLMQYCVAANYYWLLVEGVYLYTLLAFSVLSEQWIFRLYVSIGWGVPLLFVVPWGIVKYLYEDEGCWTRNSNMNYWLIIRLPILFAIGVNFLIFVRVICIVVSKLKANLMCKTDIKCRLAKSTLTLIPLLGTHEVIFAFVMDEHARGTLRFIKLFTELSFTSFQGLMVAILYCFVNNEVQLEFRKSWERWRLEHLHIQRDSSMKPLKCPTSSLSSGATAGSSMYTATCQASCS

For the assay, the target named is GLP-1R (Homo sapiens, UniProt P43220). In words: GLP-1R agonistic activity by One-Lite luciferase assay in HEK293-GLP-1R-luc cells (Example 59). It counts as cell-based. Conditions: 6 h incubation, read-out: cAMP EC50. The protocol:
The agonistic activities of the compounds of the present disclosure on GLP-1R were evaluated by detecting the generation of cAMP.
• (1) Cell line: HEK293-GLP-1R-luc Stable Cell Line (Cobioer, CBP71117); • (2) Culture medium: DMEM+10% FBS (Gibco); • (3) Kit: One-Lite™ kit Luciferase Assay System (Vazyme). 2. Experimental Procedures • (1) HEK293-GLP1R cells were inoculated in a 96-well plate at a density of 30000 cells per well; • (2) 10× working solution of each compound was formulated; • (3) 10 μL of 10× working solution of each compound was added to corresponding well and incubated at 37° C. for 6 h; • (4) 100 μL of One-Lite Luciferase Assay Substrate formulated using One-Lite Luciferase Assay Buffer was added to each well; • (5) The plate was incubated at room temperature for 3 min; • (6) The plate was read by a multimode microplate reader to detect chemiluminescence. 3. Data Analysis • (1) % Activity was calculated by the following formula: % Activity=100−(Signalcmpd−SignalAve-PC)/(SignalAve-VC−SignalAve-PC)×100 • (2) The dose-response curve was plotted to calculate EC50: Y=Bottom+(Top−Bottom)/(1+10^(Log EC50−X)*HillSlope)) • X: log of agonist concentration; Y: Activity. 4. Experimental Results
Take `Cc1cc(-n2nc3c(c2-n2ccn(-c4ccc5c(cnn5C)c4F)c2=O)[C@H](C)N(C(=O)c2cc4cc([C@H]5CCOC(C)(C)C5)ccc4n2[C@@]2(c4noc(=O)[nH]4)C[C@@H]2C)CC32CCN(C)C2)cc(C)c1F` (stereo partly shown) [Compound 79]: the EC50 was not above 0.02 µM.

On to `Cc1cc(-n2nc3c(c2-n2ccn(-c4ccc5c(cnn5C)c4F)c2=O)[C@H](C)N(C(=O)c2cc4cc([C@H]5CCOC(C)(C)C5)ccc4n2[C@@]2(c4noc(=O)[nH]4)C[C@@H]2C)CC32CCC(=O)C2)cc(C)c1F` (stereo partly shown) [Compound 208], for which the EC50 was not above 0.02 µM.

Take `Cc1cc(-n2nc3c(c2-n2ccn(-c4ccc5c(cnn5C)c4F)c2=O)[C@H](C)N(C(=O)c2cc4cc([C@H]5CCOC(C)(C)C5)ccc4n2[C@@]2(c4noc(=O)[nH]4)C[C@@H]2C)CC32CN(C=O)C2)cc(C)c1F` [Compound 165]: the EC50 is not above 0.02 µM.

As to `COC1CC2(CC1OC)CN(C(=O)c1cc3cc([C@H]4CCOC(C)(C)C4)ccc3n1[C@@]1(c3noc(=O)[nH]3)C[C@@H]1C)[C@@H](C)c1c2nn(-c2cc(C)c(F)c(C)c2)c1-n1ccn(-c2ccc3c(cnn3C)c2F)c1=O` (stereo partly shown) [Compound 214], the EC50 was not above 0.02 µM.

Turning to `Cc1cc(-n2nc3c(c2-n2ccn(-c4ccc5c(cnn5C)c4F)c2=O)[C@H](C)N(C(=O)c2cc4cc([C@H]5CCOC(C)(C)C5)ccc4n2[C@@]2(c4noc(=O)[nH]4)C[C@@H]2C)CC32CN(C)C2)cc(C)c1F` [Compound 164], the EC50 is not above 0.02 µM.

With `Cc1cc(-n2nc3c(c2-n2ccn(-c4ccc5c(cnn5C)c4F)c2=O)[C@H](C)N(C(=O)c2cc4cc([C@H]5CCOC(C)(C)C5)ccc4n2[C@@]2(c4noc(=O)[nH]4)C[C@@H]2C)CC32CCC(O)C2)cc(C)c1F` (stereo partly shown) [Compound 209], the EC50 was not above 0.02 µM.

Regarding `Cc1cc(-n2nc3c(c2-n2ccn(-c4ccc5c(cnn5C)c4F)c2=O)[C@H](C)N(C(=O)c2cc4cc([C@H]5CCOC(C)(C)C5)ccc4n2[C@@]2(c4noc(=O)[nH]4)C[C@@H]2C)CC32CCN(S(C)(=O)=O)CC2)cc(C)c1F` [Compound 156], the EC50 is not above 0.02 µM.

Consider `CC(=O)N1CCC2(CC1)CN(C(=O)c1cc3cc([C@H]4CCOC(C)(C)C4)ccc3n1[C@@]1(c3noc(=O)[nH]3)C[C@@H]1C)[C@@H](C)c1c2nn(-c2cc(C)c(F)c(C)c2)c1-n1ccn(-c2ccc3c(cnn3C)c2F)c1=O` [Compound 91], for which the EC50 was not above 0.02 µM.

Regarding `CCn1ncc2c(F)c(-n3ccn(-c4c5c(nn4-c4cc(C)c(F)c(C)c4)C4(CC4)CN(C(=O)c4cc6cc([C@H]7CCOC(C)(C)C7)ccc6n4[C@@]4(c6noc(=O)[nH]6)C[C@@H]4C)[C@H]5C)c3=O)ccc21` [Compound 222], the EC50 is not above 0.02 µM.

Take `Cc1cc(-n2nc3c(c2-n2ccn(-c4ccc5c(cnn5C)c4F)c2=O)[C@H](C)N(C(=O)c2cc4cc([C@H]5CCOC(C)(C)C5)ccc4n2[C@@]2(c4noc(=O)[nH]4)C[C@@H]2C)CC32CCCC2)cc(C)c1F` [Compound 25]: the EC50 is not above 0.02 µM.

On to `Cc1cc(-n2nc3c(c2-n2ccn(-c4ccc5c(cnn5C)c4F)c2=O)[C@H](C)N(C(=O)c2cc4cc([C@H]5CCOC(C)(C)C5)ccc4n2[C@@]2(c4noc(=O)[nH]4)C[C@@H]2C)CC32CC(F)C2)cc(C)c1F` (stereo partly shown) [Compound 182], for which the EC50 is not above 0.02 µM.

Regarding `COC1CCC2(C1)CN(C(=O)c1cc3cc([C@H]4CCOC(C)(C)C4)ccc3n1[C@@]1(c3noc(=O)[nH]3)C[C@@H]1C)[C@@H](C)c1c2nn(-c2cc(C)c(F)c(C)c2)c1-n1ccn(-c2ccc3c(cnn3C)c2F)c1=O` (stereo partly shown) [Compound 210], the EC50 is not above 0.02 µM.

Consider `Cc1cc(-n2nc3c(c2-n2ccn(-c4ccc5c(cnn5C)c4F)c2=O)[C@H](C)N(C(=O)c2cc4cc([C@H]5CCOC(C)(C)C5)ccc4n2[C@@]2(c4noc(=O)[nH]4)C[C@@H]2C)CC32CCN(C(=O)CN)CC2)cc(C)c1F` [Compound 161], for which the EC50 was not above 0.02 µM.

For the compound `COC1CCC2(CC1)CN(C(=O)c1cc3cc([C@H]4CCOC(C)(C)C4)ccc3n1[C@@]1(c3noc(=O)[nH]3)C[C@@H]1C)[C@@H](C)c1c2nn(-c2cc(C)c(F)c(C)c2)c1-n1ccn(-c2ccc3c(cnn3C)c2F)c1=O` (stereo partly shown) [Compound 202], the EC50 is not above 0.02 µM.

Turning to `[2H]C([2H])([2H])OC1CC2(C1)CN(C(=O)c1cc3cc([C@H]4CCOC(C)(C)C4)ccc3n1[C@@]1(c3noc(=O)[nH]3)C[C@@H]1C)[C@@H](C)c1c2nn(-c2cc(C)c(F)c(C)c2)c1-n1ccn(-c2ccc3c(cnn3C)c2F)c1=O` (stereo partly shown) [Compound 207], the EC50 was not above 0.02 µM.

Regarding `Cc1cc(-n2nc3c(c2-n2ccn(-c4ccc5c(cnn5C)c4F)c2=O)[C@H](C)N(C(=O)c2cn4cc(C5CCOC(C)(C)C5)ccc4c2C2(c4noc(=O)[nH]4)CC2)CC32CC2)cc(C)c1F` (stereo partly shown) [Compound 196], the half-maximal effective concentration (EC50) is not above 0.02 µM.

Consider `Cc1cc(-n2nc3c(c2-n2ccn(-c4ccc5c(cnn5C)c4F)c2=O)[C@H](C)N(C(=O)c2cc4cc([C@H]5CCOC(C)(C)C5)ccc4n2[C@@]2(c4noc(=O)[nH]4)C[C@@H]2C)CC32CCCCC2)cc(C)c1F` [Compound 37], for which the EC50 is 0.02 to 0.1 µM.

Take `Cc1cc(-n2nc3c(c2-n2ccn(-c4ccc5c(cnn5C)c4F)c2=O)[C@H](C)N(C(=O)c2cc4cc([C@H]5CCOC(C)(C)C5)ccc4n2[C@@]2(c4noc(=O)[nH]4)C[C@@H]2C)CC32CCCCO2)cc(C)c1F` (stereo partly shown) [Compound 39]: the EC50 is not above 0.02 µM.

With `Cc1cc(-n2nc3c(c2-n2ccn(-c4ccc5c(ccn5C)c4F)c2=O)[C@H](C)N(C(=O)c2cc4cc([C@H]5CCOC(C)(C)C5)ccc4n2[C@@]2(c4noc(=O)[nH]4)C[C@@H]2C)CC32CCCNC2)cc(C)c1F` (single isomer, unassigned) [Compound 51-B], the EC50 is not above 0.02 µM.

Regarding `COCC(=O)N1CCC2(CC1)CN(C(=O)c1cc3cc([C@H]4CCOC(C)(C)C4)ccc3n1[C@@]1(c3noc(=O)[nH]3)C[C@@H]1C)[C@@H](C)c1c2nn(-c2cc(C)c(F)c(C)c2)c1-n1ccn(-c2ccc3c(cnn3C)c2F)c1=O` [Compound 158], the EC50 was not above 0.02 µM.

`Cc1cc(-n2nc3c(c2-n2ccn(-c4ccc5c(cnn5C)c4F)c2=O)[C@H](C)N(C(=O)c2cc4cc([C@H]5CCOC(C)(C)C5)ccc4n2[C@@]2(c4noc(=O)[nH]4)C[C@@H]2C)CC32CCN(C(N)=O)CC2)cc(C)c1F` [Compound 162]: the EC50 was not above 0.02 µM.

With `COC1CC2(C1)CN(C(=O)c1cc3cc([C@H]4CCOC(C)(C)C4)ccc3n1[C@@]1(c3noc(=O)[nH]3)C[C@@H]1C)[C@@H](C)c1c2nn(-c2cc(C)c(F)c(C)c2)c1-n1ccn(-c2ccc3c(cnn3C)c2F)c1=O` (stereo partly shown) [Compound 184], the concentration giving a half-maximal response (EC50) is not above 0.02 µM.

`Cc1cc(-n2nc3c(c2-n2ccn(-c4ccc5c(cnn5C)c4F)c2=O)[C@H](C)N(C(=O)c2cc4cc([C@H]5CCOC(C)(C)C5)ccc4n2[C@@]2(c4noc(=O)[nH]4)C[C@@H]2C)CC32CCN(C(=O)C3CC3)CC2)cc(C)c1F` [Compound 157]: the EC50 was not above 0.02 µM.

With `Cc1cc(-n2nc3c(c2-n2ccn(-c4ccc5c(cnn5C)c4F)c2=O)[C@H](C)N(C(=O)c2cc4cc(N5CCOC(C)(C)C5)ccc4n2[C@@]2(c4noc(=O)[nH]4)C[C@@H]2C)CC32CC2)cc(C)c1F` [Compound 173], the EC50 lay in the range of 0.02 to 0.1 µM.

For `C[C@H]1c2c(nn(-c3ccc(F)c(C4CC4)c3)c2-n2ccn(-c3ccc4c(cnn4C)c3F)c2=O)C2(CC2)CN1C(=O)c1cc2cc(C3CCOC(C)(C)C3)ccn2c1C1(c2noc(=O)[nH]2)CC1` (single isomer, unassigned) [Compound 186-A], the EC50 is more than 0.3 µM.

As usually defined, the EC50 is the concentration at which the effect is half-maximal.

The record behind these values is patent US12419874B2, “GLP-1R agonist compound and use thereof” (Chongqing Pharmaceutical Research Institute Co., Ltd., priority 2024, dated 2025).
